Source: patent US6737383B1, “Herbicidal oxadiazolidines” (priority 1999, dated 2004)

Legend:
[1] = tested on: bedstraw; assay: Test B pre/postemergence bedstraw; format: in vivo, Galium aparine
Summary of the method: (§1)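 Response is a visual 0-to-10 score relative to untreated plants, where 0 means no effect and 10 means complete control, taken twelve to sixteen days after application. Treatments went onto soil at planting and onto foliage of 1- to 4-leaf plants, using a surfactant-containing non-phytotoxic solvent.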

[2] = tested on: cocklebur; assay: Test B pre/postemergence cocklebur; format: in vivo, Xanthium strumarium
Summary of the method: as §1

[3] = tested on: rice; assay: Test B flood test rice; format: in vivo, Oryza sativa
Summary of the method: (§2)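 Flood test on plants grown to the 2-leaf stage; treated plants kept in greenhouse twelve to sixteen days, then visually rated against controls on a 0 (no effect) to 10 (complete control) scale.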

[4] = tested on: pigweed; assay: Test B pre/postemergence pigweed; format: in vivo, Amaranthus retroflexus; conditions: for Plant response rating, Redroot pigweed: scale of 0 to 10 where 0 is no effect and 10 is complete control
Summary of the method: as §1

[5] = tested on: morningglory; assay: Test B pre/postemergence morningglory; format: in vivo, Ipomoea hederacea; conditions: for Plant response rating, Morningglory: scale of 0 to 10 where 0 is no effect and 10 is complete control
Summary of the method: as §1

[6] = tested on: wild oat; assay: Test B pre/postemergence wild oat; format: in vivo, Avena fatua; conditions: for Plant response rating, Wild oats: scale of 0 to 10 where 0 is no effect and 10 is complete control
Summary of the method: as §1

[7] = tested on: giant foxtail; assay: Test B pre/postemergence giant foxtail; format: in vivo, Setaria faberii
Summary of the method: as §1

[8] = tested on: surinam grass; assay: Test B pre/postemergence surinam grass; format: in vivo, Brachiaria decumbens
Summary of the method: as §1

[9] = tested on: duck salad; assay: Test B flood test duck salad; format: in vivo, Heteranthera limosa
Summary of the method: as §2

[10] = tested on: blackgrass; assay: Test B pre/postemergence blackgrass; format: in vivo, Alopecurus myosuroides
Summary of the method: as §1

[11] = tested on: smallflower flatsedge; assay: Test B flood test smallflower flatsedge; format: in vivo, Cyperus difformis
Summary of the method: as §2

[12] = tested on: corn; assay: Test B pre/postemergence corn; format: in vivo, Zea mays
Summary of the method: as §1

[13] = tested on: crabgrass; assay: Test B pre/postemergence crabgrass; format: in vivo, Digitaria sanguinalis
Summary of the method: as §1

[14] = tested on: purple nutsedge; assay: Test B pre/postemergence purple nutsedge; format: in vivo, Cyperus rotundus; conditions: for Plant response rating, Nutsedge: scale of 0 to 10 where 0 is no effect and 10 is complete control
Summary of the method: as §1

[15] = tested on: soybean; assay: Test B pre/postemergence soybean; format: in vivo, Glycine max; conditions: for Plant response rating, Soybean: scale of 0 to 10 where 0 is no effect and 10 is complete control
Summary of the method: as §1

[16] = tested on: sugar beet; assay: Test B pre/postemergence sugar beet; format: in vivo, Beta vulgaris; conditions: for Plant response rating, Sugarbeets: scale of 0 to 10 where 0 is no effect and 10 is complete control
Summary of the method: as §1

[17] = Preemergence, Rate 125 g/ha, scale of 0 to 10 where 0 is no effect and 10 is complete control
[18] = Preemergence, Rate 250 g/ha, scale 0 to 10, 0 is no effect, 10 is complete control
[19] = Rate 62 g/ha, Postemergence, scale 0 to 10 (0 no effect, 10 complete control)
[20] = Rate 125 g/ha, Postemergence, scale 0 to 10, 0 is no effect, 10 is complete control
[21] = Postemergence, Rate 250 g/ha, scale 0 to 10
[22] = Postemergence, Rate 500 g/ha, scale of 0 to 10 where 0 is no effect and 10 is complete control
[23] = Preemergence, Rate 62 g/ha, scale of 0 to 10 where 0 is no effect and 10 is complete control
[24] = Preemergence, Rate 500 g/ha, scale 0 to 10, 0 is no effect, 10 is complete control
[25] = Rate 62 g/ha, flood test species, Pre-emergence, visual evaluation after twelve to sixteen days
[26] = Rate 125 g/ha, under heading Pre-emergence, flood test species, visual evaluation after twelve to sixteen days
[27] = Rate 250 g/ha, Pre-emergence (flood test species), scale 0 to 10, 0 is no effect, 10 is complete control
[28] = Rate 500 g/ha, Pre-emergence, flood test species, scale 0 to 10 (0 no effect, 10 complete control)

CC(C)N(C(=O)n1oc(=O)n(C(C)C(=O)N(C)C)c1=O)c1ccc(F)cc1 (stereo not shown) [Compound 478]
Plant response rating, Bedstraw [1, 17]: 8 | Bedstraw plant response rating [1, 18]: 8 | Bedstraw plant response rating [1, 19]: 0 | Bedstraw plant response rating [1, 20]: 0 | Cocklebur plant response rating [2, 21]: 0 | Cocklebur plant response rating [2, 22]: 0 | Plant response rating, Cocklebur [2, 23]: 0 | Plant response rating, Cocklebur [2, 17]: 0 | Cocklebur plant response rating [2, 18]: 0 | Cocklebur plant response rating [2, 24]: 0 | Cocklebur plant response rating [2, 19]: 0 | Cocklebur plant response rating [2, 20]: 0 | Plant response rating, Rice (0 to 10 scale, 0 is no effect, 10 is complete control) [3, 25]: 0 | Rice plant response rating (0 to 10 scale, 0 is no effect, 10 is complete control) [3, 26]: 0 | Rice plant response rating [3, 27]: 0 | Rice plant response rating [3, 28]: 0 | Redroot pigweed plant response rating [4, 21]: 3 | Plant response rating, Redroot pigweed ([4]; Preemergence, Rate 62 g/ha): 8 | Plant response rating, Redroot pigweed ([4]; Preemergence, Rate 125 g/ha): 8 | Redroot pigweed plant response rating [4, 18]: 9 | Redroot pigweed plant response rating [4, 24]: 10 | Redroot pigweed plant response rating [4, 19]: 1 | Redroot pigweed plant response rating [4, 20]: 2 | Morningglory plant response rating [5, 21]: 7 | Plant response rating, Morningglory ([5]; Preemergence, Rate 62 g/ha): 0 | Plant response rating, Morningglory ([5]; Preemergence, Rate 125 g/ha): 0 | Morningglory plant response rating [5, 18]: 1 | Morningglory plant response rating [5, 24]: 2 | Morningglory plant response rating [5, 19]: 3 | Morningglory plant response rating [5, 20]: 3 | Wild oats plant response rating [6, 21]: 0 | Plant response rating, Wild oats ([6]; Preemergence, Rate 62 g/ha): 2 | Plant response rating, Wild oats ([6]; Preemergence, Rate 125 g/ha): 7 | Wild oats plant response rating [6, 18]: 9 | Wild oats plant response rating [6, 24]: 10 | Wild oats plant response rating [6, 19]: 0 | Wild oats plant response rating [6, 20]: 0 | Giant foxtail plant response rating [7, 21]: 8 | Giant foxtail plant response rating [7, 22]: 9 | Plant response rating, Giant foxtail [7, 23]: 9 | Plant response rating, Giant foxtail [7, 17]: 10 | Giant foxtail plant response rating [7, 18]: 10 | Giant foxtail plant response rating [7, 24]: 10 | Giant foxtail plant response rating [7, 19]: 3 | Giant foxtail plant response rating [7, 20]: 6 | B. signalgrass plant response rating ([8]; Postemergence, Rate 250 g/ha, scale 0 to 10, 0 no effect, 10 complete control): 5 | B. signalgrass plant response rating [8, 22]: 8 | Plant response rating, B. signalgrass [8, 23]: 4 | Plant response rating, B. signalgrass [8, 17]: 6 | B. signalgrass plant response rating [8, 18]: 9 | B. signalgrass plant response rating [8, 24]: 10 | B. signalgrass plant response rating [8, 19]: 0 | B. signalgrass plant response rating [8, 20]: 0 | Plant response rating, Ducksalad (0 to 10 scale, 0 is no effect, 10 is complete control) [9, 25]: 0 | Ducksalad plant response rating (0 to 10 scale, 0 is no effect, 10 is complete control) [9, 26]: 0 | Ducksalad plant response rating [9, 27]: 0 | Ducksalad plant response rating [9, 28]: 0 | Blackgrass plant response rating [10, 21]: 8 | Blackgrass plant response rating [10, 22]: 8 | Plant response rating, Blackgrass [10, 23]: 4 | Plant response rating, Blackgrass [10, 17]: 8 | Blackgrass plant response rating [10, 18]: 10 | Blackgrass plant response rating [10, 24]: 10 | Blackgrass plant response rating [10, 19]: 0 | Blackgrass plant response rating [10, 20]: 2 | Plant response rating, S. Flatsedge (0 to 10 scale, 0 is no effect, 10 is complete control) [11, 25]: 0 | S. Flatsedge plant response rating (0 to 10 scale, 0 is no effect, 10 is complete control) [11, 26]: 0 | S. Flatsedge plant response rating [11, 27]: 0 | S. Flatsedge plant response rating [11, 28]: 0 | Corn plant response rating [12, 21]: 0 | Corn plant response rating [12, 22]: 2 | Plant response rating, Corn [12, 23]: 0 | Plant response rating, Corn [12, 17]: 0 | Corn plant response rating [12, 18]: 0 | Corn plant response rating [12, 24]: 0 | Corn plant response rating [12, 19]: 0 | Corn plant response rating [12, 20]: 0 | Crabgrass plant response rating [13, 21]: 8 | Crabgrass plant response rating [13, 22]: 9 | Plant response rating, Crabgrass [13, 23]: 8 | Plant response rating, Crabgrass [13, 17]: 9 | Crabgrass plant response rating [13, 18]: 10 | Crabgrass plant response rating [13, 24]: 10 | Crabgrass plant response rating [13, 19]: 2 | Crabgrass plant response rating [13, 20]: 3 | Nutsedge plant response rating [14, 21]: 0 | Plant response rating, Nutsedge ([14]; Preemergence, Rate 62 g/ha): 0 | Plant response rating, Nutsedge ([14]; Preemergence, Rate 125 g/ha): 0 | Nutsedge plant response rating [14, 18]: 0 | Nutsedge plant response rating [14, 24]: 3 | Nutsedge plant response rating [14, 19]: 0 | Nutsedge plant response rating [14, 20]: 0 | Soybean plant response rating [15, 21]: 2 | Plant response rating, Soybean ([15]; Preemergence, Rate 62 g/ha): 0 | Plant response rating, Soybean ([15]; Preemergence, Rate 125 g/ha): 0 | Soybean plant response rating [15, 18]: 0 | Soybean plant response rating [15, 24]: 0 | Soybean plant response rating [15, 19]: 2 | Soybean plant response rating [15, 20]: 2 | Sugarbeets plant response rating [16, 21]: 0 | Plant response rating, Sugarbeets ([16]; Preemergence, Rate 62 g/ha): 0 | Plant response rating, Sugarbeets ([16]; Preemergence, Rate 125 g/ha): 0 | Sugarbeets plant response rating [16, 18]: 3 | Sugarbeets plant response rating [16, 24]: 7 | Sugarbeets plant response rating [16, 19]: 0 | Sugarbeets plant response rating [16, 20]: 0
